Columns and labels:
[1] = Amount of salicylic acid in rat plasma and brain, 0.3 mmol/kg
Description: 20 male rats were divided into 4 groups (n=5). 0.3 mmol/kg of diethylaminoethyl acetylsalicylate.HCl salt was administrated into rats intramuscularly (20% in 70% ethanol) or transdermally (10% in 70% ethanol, on the shaved back of rat, 10 cm^2) and 0.3 mmol/kg of aspirin was administrated into rats intramuscularly (20% in 70% ethanol) or transdermally (10% in 70% ethanol, on the shaved back of rat, 10 cm^2). […] The plasma or brain tissue (the whole brain was washed with pH 7.4 buffer for 3 times) was homogenized immediately in 3-5 ml of methanol, using a tissue tearor at 30,000 rpm (about 2 min.).

[2] = test system: diseases and insects of rice; experiment: Antiviral, anti-fungus, anti-insect activity in rice; type: in vivo
[3] = test system: Human colon cancer cells (LS174J); experiment: Human colon cancer xenograft in nude mice
Description: Human colon cancer cells (LS174J, 2-3 mm^3 of tumor tissue was used in each mouse) were subcutaneously xenografted into nude mice (BALB).

[4] = test system: fungal diseases and insects of peach trees; experiment: Antiviral, anti-fungus, anti-insect activity in peach trees; type: in vivo
Experimental: 240 Peach trees were divided into 4 groups. All field operations concerning land preparation and the uses of fertilizers were same for all groups. Group A (n=60) was control group with no chemical treatments. Group B (n=60) was normal fungicides and insecticides-treated group. Group C (n=60) was treated with N,N-diethylaminoethyl acetylsalicylate plus some insecticides. Group D (n=60) was N,N-diethylaminoethyl acetylsalicylate and N,N-diethylaminoethyl jasmonate.citric acid treated group. In group A, Peach Leaf Curl, Peach Scab, Brown Rot, Black Knot and other fungal diseases were found and different scale insects, Shothole Borer, Peach tree Borer, Lesser Peachtree Borer, fruit Moth and other diseases and insects were found. No any good (edible) fruits were harvested. In group B, 100 g of ferbam [iron tris(dimethyldithiocarbamate)] […] Group C was N,N-diethylaminoethyl acetylsalicylate-treated group. 50 g of N,N-diethylaminoethyl acetylsalicylate in 50 kg of water was applied to the group C Peach trees on November 15, March 1, March 20, and June 20, 50 g of N,N-diethylaminoethyl acetylsalicylate, 125 g of Malathion 50% EC, 125 g of 1-naphthyl methylcarbamate 50% WP and 60 g of thiophanate-methyl 50% WP in 50 kg of water was applied to the group C peach trees on April 1, April 20, May 10, and May 30. Yield 3000 kg of good (edible) peaches. […]

[5] = test system: carotid artery thrombosis; experiment: Thrombosis/stroke induced by electrical stimulation of carotid artery; type: in vivo, rats (Spragu Dawley)
Experimental: Thrombosis was induced by electrical stimulation (1 mA for 3 minutes) of the carotid artery in rats by using a thrombosis formation instrument (YLS-14A, Shandong Academy of Medical Sciences, Shandong, China). […] In group B, 100 mg/kg of diethylaminoethyl acetylsalicylate.HCl salt (10% in water) was applied to the shaved back skin of the rats (˜9 cm^2, fur was cut off) 2 hour before the operation and 1 hour after the operation, then 50 mg/kg of the HPC was applied to the back of the rats twice per day. In group C, 50 mg/kg of diethylaminoethyl acetylsalicylate.HCl was applied to the back of the rats twice per day starting from 24 hours after the operation. The recovery of motor functions of rats was evaluated every day.

[6] = test system: MPTP-induced Parkinson's disease mice; experiment: Anti-Parkinson's disease activity in MPTP-induced mice; conditions: MPTP mice, 30 mg/kg, n = 10
Experimental: Group A mice were ip injected 0.4% sodium carboxymethylcellulos (15 ml/kg per day) for 7 days. Group B and C mice were ip injected N-methyl-4-phenyl-1,2,3,6-tetrahydropyridine (MPTP, 30 mg/kg per day) for 7 days. The mice were divided into 2 groups. […] All mice were killed after the last treatment and the brain tissues were quickly freezed at −80° C. […] The contents of malondialdehyde (MDA) in the SN were measured with the thiobarbituric acid-reaction to indicate the LPO, and contents of glutathione (GSH) in the substantia nigra (SN) were based on the dithionitrobenzonic acid (DTNB) determination. The contents of GABA and Glu in the striatum and SN were shown by high performance amino acid auto-analyser.

[7] = Distribution in organs of rats killed with CO2 (absence of general circulation); conditions: 5 hrs after 0.3 mmol/kg diethylaminoethyl acetylsalicylate HCl salt on back of killed rats;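 note: tissue concentration in nmol/g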
Experimental: 0.3 mmol/kg of diethylaminoethyl acetylsalicylate HCl salt (10% in pure water) was applied to the back of rats (10 cm^2) which were killed with CO2. The rats were shaken for 5 hrs, then the HPCs and parent drugs in organs of rats were determined.

[8] = test system: SLAC:NOD-IDDM, type 1 diabetes; experiment: Anti-diabetes (type I) activity of HPCs of NSAIAs; type: in vivo, mice
Method in brief: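 Prodrugs given transdermally to the shaved back (about 1.5 cm^2) twice daily at 8 am and 5 pm for 7 weeks, dosed as equal to 20 mg/kg of NSAIA. Non-fasting blood glucose was measured every 3 days at 4:30 pm from week 4 to week 7.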

[9] = group B: 100 mg/kg 2 hour before and 1 hour after operation, then 50 mg/kg twice per day
[10] = group C: 50 mg/kg twice per day starting 24 hours after the operation

CCN(CC)CCOC(=O)c1ccccc1OC(C)=O.Cl [P-1, diethylaminoethyl acetylsalicylate.HCl salt]
salicylic acid in Plasma (1 hr) ([1]; intramuscularly): 378 ± 34 nmol/mL
salicylic acid in Plasma (8 hr) ([1]; intramuscularly): 123 ± 25 nmol/mL
salicylic acid in Plasma (18 hr) ([1]; intramuscularly): 0.9 ± 0.2 nmol/mL
salicylic acid in Plasma (1 hr) ([1]; transdermally): 158 ± 21 nmol/mL
salicylic acid in Plasma (8 hr) ([1]; transdermally): 103 ± 28 nmol/mL
salicylic acid in Plasma (18 hr) ([1]; transdermally): 1.1 ± 0.2 nmol/mL
Yield of good rice ([2]; 1/2 acre per group, imidacloprid co-applied in group C): 1800 kg
harvest dates earlier ([2]; group C and D): 5 days
tumor Size at day 30 ([3]; about 50 μl of 5% topically every 12 hours): 480 ± 130 mm^3
Weight of mice at day 30 ([3]; in vivo): 23 ± 3
Yield of good (edible) peaches ([4]; 60 trees per group, some insecticides/fungicides co-applied): 3000 kg
harvest dates earlier ([4]; groups C and D): 1 week
Stroke-free rats (2 hours) [5, 9]: 8/10
Stroke-free rats (1 day) [5, 9]: 9/10
Stroke-free rats (7 days) [5, 9]: 10/10
Stroke-free rats (3 hrs) [5, 10]: 0/10
Stroke-free rats (2 day) [5, 10]: 4/10
Stroke-free rats (7 day) [5, 10]: 9/10
Stroke-free rats (14 days) [5, 10]: 10/10
Weight Loss (3 days) [5, 10]: −13 +/− 7%
Weight Loss (7 days) [5, 10]: −7 +/− 4%
Weight Loss (14 days) [5, 10]: −4 +/− 2%
bleeding problem ([5]; post-stroke treatment): without bleeding problem
GABA in Striatum [6]: 4.9 ± 1.6 μmol/g wet tissue
GABA in Substantia nigra [6]: 4.7 ± 0.5 μmol/g wet tissue
GSH in the substantia nigra [6]: 143 ± 13 μg/g protein
Glu in Striatum [6]: 26.5 ± 2.7
Glu in Substantia nigra [6]: 29.5 ± 2.4
MDA in the substantia nigra [6]: 14 ± 4 μmol/g protein
concentration in Leg muscle [7]: 5.2 ± 3.2 nmol/g
concentration in kidney [7]: 3.1 ± 1.4 nmol/g
concentration in liver [7]: 1.2 ± 1.1 nmol/g
concentration in pancreas [7]: 2.7 ± 1.3 nmol/g
concentration in stomach [7]: 4.3 ± 1.1 nmol/g
blood glucose, Baseline ([8]; equal to 20 mg/kg of NSAIAs transdermally twice per day for 7 weeks): 18.1 ± 4.5 mmol/L
blood glucose, Average ([8]; fourth week to seventh week, no fasting, equal to 20 mg/kg of NSAIAs transdermally twice per day): 7.5 ± 1.8 mmol/L

Source: US11541029B2, “High penetration compositions and their applications” (Techfields Pharma Co., Ltd., priority 2008, dated 2023)
